In US8063225B2, “Tricyclic compound derivatives useful in the treatment of neoplastic diseases, inflammatory disorders and immunomodulatory disorders” (Chembridge Corporation, priority 2006, dated 2011):

Assays:
IGF1R tyrosine kinase = target: T1, IGF1R tyrosine kinase (Homo sapiens, UniProt P08069); experiment: IGF1R tyrosine kinase assay (Kinase-Glo ATP depletion or PT66/PT100 AlphaScreen); settings: biochemical tyrosine kinase assay
T1 construct: 6×His- or GST-tagged kinase domain fragments of the corresponding RTKs expressed in baculovirus system; host or cells: baculovirus system
T1 sequence (P08069 999-1274 limits assumed): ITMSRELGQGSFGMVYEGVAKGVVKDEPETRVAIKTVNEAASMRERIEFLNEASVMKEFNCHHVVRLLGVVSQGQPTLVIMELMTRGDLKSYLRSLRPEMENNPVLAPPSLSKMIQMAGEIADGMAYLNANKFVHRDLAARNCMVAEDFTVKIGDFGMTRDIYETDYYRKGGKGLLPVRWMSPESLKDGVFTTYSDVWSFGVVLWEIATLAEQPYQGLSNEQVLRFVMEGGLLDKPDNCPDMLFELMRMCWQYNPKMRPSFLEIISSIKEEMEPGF
Description: (§1) To determine inhibition of several tyrosine kinases, such as IGF1R, InsR, Alk, TrkA and Jak2, kinase assays are conducted using either Kinase-Glo (Promega) or AlphaScreen (PerkinElmer) kinase assay platforms. The Kinase-Glo Luminescent Kinase Assay is a homogeneous method for measuring kinase activity by determining the amount of ATP remaining after a kinase reaction. The luminescent signal is proportional to the amount of ATP and inversely proportional to the amount of kinase activity. Tyrosine kinase PT66 AlphaScreen Assay is a high-sensitivity homogeneous, anti-phosphotyrosine antibody-mediated luminescent proximity method measuring, incorporation of phosphate in synthetic poly(Glu-Tyr) substrate. The kinase preparations used consist of purified recombinant, 6×His- or GST-tagged kinase domain fragments of the corresponding RTKs expressed in baculovirus system.
(§2) The IGF1R tyrosine kinase is assayed in Kinase-Glo ATP depletion assay using the synthetic polymer poly(Glu-Tyr, 4:1) (Sigma Chemicals) as a phosphoacceptor substrate. Each reaction mixture consists of a total volume of 10 μl and contains 40 ng of the enzyme, 5 μg of poly(Glu-Tyr), 10 μM of ATP and variable concentrations of test compounds. The mixtures also contain 50 mM Tris-HCl, pH 7.5; 5 mM MgCl2; 5 mM MnCl2; 2 mM DTT and 0.01% Tween 20. The reaction mixtures are incubated at 37° C. for 60 minutes and residual concentration of ATP in the mixture is determined by adding luciferase-containing Kinase-Glo (Promega) development reagent and counting luminescence levels using Fusion Universal Microplate Analyzer (PerkinElmer). Tested compounds are dissolved in dimethyl sulfoxide to a stock concentration of 10 mM and are typically evaluated in the assay at eight concentrations in 1 nM to 20 μM range, each in quadruplicate. […] IC50 values are derived by non-linear regression analysis using Prism 3.0 software (Graphpad Software). Other tyrosine kinases are assayed according to the same protocol after titrating amount of the enzyme to provide optimal signal-to-noise ratio and no more than 30% of total ATP consumption in the reaction conditions used.
(§3) The IGF1R tyrosine kinase is assayed in Phosphotyrosine (PT66 or PT 100) AlphaScreen chemiluminescent assay (PerkinElmer) according to the manufacturerer's recommendations. Each kinase reaction mixture consists of a total volume of 15 μl and contains 0.1-1 ng of the enzyme, 7 ng of biotinylated poly(Glu-Tyr) (Cis-Bio), 10 μM of ATP and variable concentrations of test compounds. The mixtures also contain 50 mM Tris-HCl, pH 7.5; 5 mM MgCl2; 5 mM MnCl2; 2 mM DTT and 0.01% Tween 20. The reaction mixtures are incubated at room temperature for 30 minutes. Ten (10) μl of the mixture of […] and donor beads (as supplied by the manufacturer) is then added to the reaction and the incubation is continued for an additional 60 minutes.

Karpas-299 = experiment: Cell proliferation inhibition, Cell Titer-Glo, Karpas-299; assay type: cell-based; settings: Homo sapiens; cell proliferation assay, Karpas-299 cells
Source text: (§4) IGF1R and other tyrosine kinase inhibitors can inhibit the proliferation of certain cancer cell lines indicating their possible therapeutic utility for treating the corresponding cancer types. Cancer cell lines of interest and control normal lines, including CHO, HEK293, BA/F3, COLO205, PC3, DU145, MCF7, Panc1, ACHN, Hep G2, H460, K562, TT, U87-MG, CAOV-3, SK-MEL5, Karpas 299 and human multiple myeloma cell lines H929, MM1s, MM1r, UTMC2, CPM2, KMS11, My5, KMS12PE, My7, JJN3, KMS18, U266, SKMM2, RPMI-8226 are plated in white, clear-bottomed 384-well cell culture plates at 2500-5000 cells per well and supplied with dilutions of tested compounds After a desired period of time (typically 3 days), the number of viable cells is quantitated by using Cell Titer-Glo Luminescent Cell Viability Assay (Promega), a cell proliferation assay system based on detection of total amount of ATP present as a measure of cell metabolic activity. The plated cells are mixed with the Cell Titer-Glo developing reagent and counted in a luminescence multiwell plate reader according to the standard manufacturer's protocol to generate IC50 curves for cell proliferation inhibition. Results are typically reported as percent of growth (% viability =(OD72h(compound)−ODday0))/(OD72h(no compound)−ODday0). Alternatively, viable cells are quantitated by using the conventional colorimetric MTT assay. The MTT assay is based on the cleavage of the yellow tetrazolium salt MTT to purple formazan crystal by metabolic active cells. The formazan is then solubilized, and the concentration determined by optical density at 570 nm. The cells plated and incubated with a compound as described above are supplemented with the solution of MTT and incubated for 2-3 hours. The growth medium is removed and dimethyl sulfoxide is added into each well to dissolve the formazan. The absorbance is measured on an ELISA plate reader with a test wavelength of 570 nm and a background subtraction wavelength of 630 nm to obtain sample signal (OD570-OD630). […] The results are reported in terms of IC50 value for a particular compound and a cell line in the standard 3-day proliferation assay using Cell Titer-Glo. […] The results are reported in terms of IC50 value for a particular compound and a cell line in the standard 3-day proliferation assay using MTT assay.

Jak2 = target: T2, Jak2 (Homo sapiens, UniProt O60674); experiment: Tyrosine kinase assay (Kinase-Glo or AlphaScreen), Jak2; settings: biochemical tyrosine kinase assay
T2 construct: 6×His- or GST-tagged kinase domain fragments of the corresponding RTKs expressed in baculovirus system; host or cells: baculovirus system
T2 sequence (O60674 849-1124 limits assumed, species assumed): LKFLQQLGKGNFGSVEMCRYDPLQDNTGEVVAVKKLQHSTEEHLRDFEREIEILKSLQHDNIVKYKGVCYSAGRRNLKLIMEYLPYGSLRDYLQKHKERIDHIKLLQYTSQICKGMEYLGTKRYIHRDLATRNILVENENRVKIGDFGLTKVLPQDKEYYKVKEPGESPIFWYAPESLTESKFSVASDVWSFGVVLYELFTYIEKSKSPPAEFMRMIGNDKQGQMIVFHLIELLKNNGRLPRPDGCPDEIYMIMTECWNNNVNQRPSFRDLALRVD
Description: as §1, §2, §3

Alk = target: T3, Alk (Homo sapiens, UniProt Q9UM73); experiment: Tyrosine kinase assay (Kinase-Glo or AlphaScreen), Alk; settings: biochemical tyrosine kinase assay
T3 construct: 6×His- or GST-tagged kinase domain fragments of the corresponding RTKs expressed in baculovirus system; host or cells: baculovirus system
T3 sequence (Q9UM73 1116-1392 limits assumed, species assumed): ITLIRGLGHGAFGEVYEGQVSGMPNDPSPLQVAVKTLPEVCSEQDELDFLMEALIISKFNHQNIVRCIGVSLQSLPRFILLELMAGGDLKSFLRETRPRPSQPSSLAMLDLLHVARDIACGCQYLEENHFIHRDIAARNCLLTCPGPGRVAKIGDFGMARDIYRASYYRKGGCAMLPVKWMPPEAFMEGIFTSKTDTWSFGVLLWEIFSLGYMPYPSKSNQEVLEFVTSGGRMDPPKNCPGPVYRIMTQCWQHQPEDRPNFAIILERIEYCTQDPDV
Description: as §1, §2, §3

K562 = experiment: Cell proliferation inhibition, Cell Titer-Glo, K562; assay type: cell-based; settings: Homo sapiens; cell proliferation assay, K562 cells
Source text: as §4

InsR = target: T4, InsR (Homo sapiens, UniProt P06213); experiment: Tyrosine kinase assay (Kinase-Glo or AlphaScreen), InsR; settings: biochemical tyrosine kinase assay
T4 construct: 6×His- or GST-tagged kinase domain fragments of the corresponding RTKs expressed in baculovirus system; host or cells: baculovirus system
T4 sequence (P06213 1023-1298 limits assumed, species assumed): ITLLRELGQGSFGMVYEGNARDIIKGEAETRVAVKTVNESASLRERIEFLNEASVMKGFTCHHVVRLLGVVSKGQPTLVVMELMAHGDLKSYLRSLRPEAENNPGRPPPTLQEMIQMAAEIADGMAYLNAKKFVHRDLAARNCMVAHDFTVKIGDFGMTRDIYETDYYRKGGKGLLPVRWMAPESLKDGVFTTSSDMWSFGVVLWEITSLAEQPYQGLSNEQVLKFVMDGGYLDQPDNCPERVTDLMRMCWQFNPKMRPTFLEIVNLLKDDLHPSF
Description: as §1, §2, §3

Ba/F3 = experiment: Cell proliferation inhibition, Cell Titer-Glo, Ba/F3; assay type: cell-based; settings: Mus musculus, BaF3; cell proliferation assay, Ba/F3 cells
Source text: as §4

Row | SMILES | IC50 (IGF1R tyrosine kinase) [µM] | IC50 (Karpas-299) [µM] | IC50 (Jak2) [µM] | IC50 (Alk) [µM] | IC50 (K562) [µM] | IC50 (InsR) [µM] | IC50 (Ba/F3) [µM]
1 | Cc1ccc(OC[C@H](O)CNc2ccnc(O)c2-c2nc3cc4c(cc3[nH]2)C(=O)N(C2CCN(C)CC2)C4=O)c2c1CCC2 [compound 85] | < 0.5 | 0.5 to 5 | 0.5 to 5 | 0.5 to 5 | 0.5 to 5 | < 0.5 | 0.5 to 5
2 | CN1CCC(N2C(=O)c3cc4nc(-c5c(NC[C@@H](O)COc6cccc7c6OC(F)C(F)(F)O7)cc[nH]c5=O)[nH]c4cc3C2=O)CC1 (stereo partly shown) [compound 82] | < 0.5 | > 15 | 0.5 to 5 | 0.5 to 5 | > 15 | 0.5 to 5 | > 15
3 | CSCc1cc(C)cc(C)c1OC[C@H](O)CNc1cc[nH]c(=O)c1-c1nc2cc3c(cc2[nH]1)C(=O)N(C1CCN(C)CC1)C3=O [compound 81] | 0.5 to 5 | 5 to 15 | 5 to 15 | 0.5 to 5 | > 15 | 5 to 15 | 5 to 15
4 | CN1CCC(N2C(=O)c3cc4nc(-c5c(N[C@@H](CO)Cc6ccccc6)cc[nH]c5=O)[nH]c4cc3C2=O)CC1 [compound 5] | 0.5 to 5 | 0.5 to 5 | 0.5 to 5 | < 0.5 | 0.5 to 5 | 0.5 to 5 | 0.5 to 5
5 | CC(C)CNCC(O)CNc1ccnc(O)c1-c1nc2cc3c(cc2[nH]1)C(=O)N(C1CCN(C)CC1)C3=O (stereo not shown) [compound 66] | > 15 | > 15 | > 15 | > 15 | > 15 | > 15 | > 15
6 | O=C1c2cc3nc(-c4c(NC[C@@H](O)c5cccc(Cl)c5)ccnc4O)[nH]c3cc2C(=O)N1CCN1CCOCC1 [compound 8] | 0.5 to 5 | > 15 | 0.5 to 5 | 0.5 to 5 | > 15 | 0.5 to 5 | > 15
7 | O=C1c2cc3nc(-c4c(NC[C@@H](O)c5cccc(Cl)c5)cc[nH]c4=O)[nH]c3cc2C(=O)N1CCO [compound 43] | 0.5 to 5 | 5 to 15 | 0.5 to 5 | > 15 | 5 to 15 | 0.5 to 5 | > 15
8 | CN1CCC(N2C(=O)c3cc4nc(-c5c(NN)ccnc5O)[nH]c4cc3C2=O)CC1 [compound 65] | 5 to 15 | > 15 | 5 to 15 | > 15 | > 15 | 5 to 15 | > 15

Continued, values first:

Row | IC50 (IGF1R tyrosine kinase) [µM] | IC50 (Karpas-299) [µM] | IC50 (Jak2) [µM] | IC50 (Alk) [µM] | IC50 (K562) [µM] | IC50 (InsR) [µM] | IC50 (Ba/F3) [µM] | SMILES
9 | < 0.5 | > 15 | 0.5 to 5 | 0.5 to 5 | > 15 | 0.5 to 5 | > 15 | CN1CCC(N2C(=O)c3cc4nc(-c5c(NC[C@@H](O)COc6cccc(C#N)c6)ccnc5O)[nH]c4cc3C2=O)CC1 [compound 52]
10 | 0.5 to 5 | > 15 | 0.5 to 5 | 5 to 15 | 5 to 15 | 0.5 to 5 | > 15 | Cc1cccc(OCC(O)CNc2cc[nH]c(=O)c2-c2nc3cc4c(cc3[nH]2)C(=O)N(C2CCN(C)CC2)C4=O)c1 (stereo not shown) [compound 105]
11 | < 0.5 | 5 to 15 | > 15 | 5 to 15 | 5 to 15 | 0.5 to 5 | 5 to 15 | COc1cc(C)ccc1OC[C@H](O)CNc1ccnc(O)c1-c1nc2cc3c(cc2[nH]1)C(=O)N(C1CCN(C)CC1)C3=O [compound 54]
12 | 0.5 to 5 | 5 to 15 | 0.5 to 5 | > 15 | 5 to 15 | 0.5 to 5 | > 15 | O=C1c2cc3nc(-c4c(NC[C@@H](O)c5cccc(Cl)c5)cc[nH]c4=O)[nH]c3cc2C(=O)N1CCCO [compound 44]
13 | < 0.5 | 5 to 15 | 0.5 to 5 | 0.5 to 5 | 5 to 15 | 0.5 to 5 | > 15 | CN1CCC(N2C(=O)c3cc4nc(-c5c(NC[C@@H](O)COc6ccc7c(c6)OCO7)ccnc5O)[nH]c4cc3C2=O)CC1 [compound 78]
